Molecular target: T1, mouse RyR2 NTR (Mus musculus, UniProt E9Q401, K30C/K441C, form not given)
T1 sequence (E9Q401 1-547 K30C/K441C): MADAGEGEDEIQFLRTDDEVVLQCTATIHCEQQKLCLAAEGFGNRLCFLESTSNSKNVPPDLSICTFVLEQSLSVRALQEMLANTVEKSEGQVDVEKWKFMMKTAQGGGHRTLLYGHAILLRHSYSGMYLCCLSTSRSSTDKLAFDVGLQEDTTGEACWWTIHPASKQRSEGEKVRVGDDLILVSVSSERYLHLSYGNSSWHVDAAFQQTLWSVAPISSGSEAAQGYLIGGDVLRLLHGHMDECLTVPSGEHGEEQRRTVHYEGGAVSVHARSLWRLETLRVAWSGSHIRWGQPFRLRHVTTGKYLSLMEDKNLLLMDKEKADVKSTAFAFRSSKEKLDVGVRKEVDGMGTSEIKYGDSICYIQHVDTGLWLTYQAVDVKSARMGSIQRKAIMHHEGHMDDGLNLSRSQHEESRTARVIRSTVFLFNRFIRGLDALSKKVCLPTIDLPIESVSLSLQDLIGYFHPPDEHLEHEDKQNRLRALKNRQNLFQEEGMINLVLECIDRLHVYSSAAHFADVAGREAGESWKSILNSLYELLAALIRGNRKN
Experiment: FLT-FRET dose-response with AC-NTR biosensor
Format: binding
Conditions: AC-NTR biosensor
Excerpt: The NTR of mouse RyR2 (residues 1–547) was cloned and expressed as previously described ([27]). The DNA construct contains a 6×His tag, a maltose-binding protein (MBP) tag, and a tobacco etch virus (TEV) protease cleavage site. The seven native solvent-exposed cysteine residues were substituted with alanine residues, and two constructs were engineered with Cys substitutions at surface residues R383 and K441 (in the B and C domains, respectively; termed BC) and at K30 and K441 (in the A and C domains, respectively; termed AC) for labeling with spectroscopic probes such as appropriate donor–acceptor fluorophores for FRET (for the purpose of this report, these are considered the WT forms of AC and BC). A variant of the BC construct corresponding to the disease-associated mutant (R420Q) was also prepared. For this site-directed mutagenesis work, we used the QuikChange (Stratagene) and Phusion High-Fidelity PCR (Thermo Fisher Scientific) kits. The WT-NTR, R420Q-NTR, AC- and BC-NTR, AC- and BC-R420Q-NTR protein constructs were expressed in Escherichia coli Rosetta (DE3) pLacI cells at 18 °C and purified with a protocol adapted from previously published work ([26]). An amylose column was first applied after the cells were lysed by ultrasonication. The protein in the elution was then cleaved using TEV protease. The cleaved crude protein went through the second amylose column to separate from the MBP and then followed by a Superdex S-200 size exclusion column in a buffer consisting of 250 mM KCl, 10 mM HEPES, and 14 mM β-mercaptoethanol (pH 7.4). The NTR protein (3 μM) was then incubated in 10 mM HEPES, 250 mM KCl (pH 7.4, 2 h, 21 °C) with the fluorescent probes Alexa Fluor 488 maleimide (AF488, donor; 40 μM) and Alexa Fluor 568 maleimide (AF568, acceptor; 60 μM). The maleimide of the dye reacts with the thiols the Cys residues engineered into NTR, forming a covalently labeled protein. The Alexa dyes were added last to the reaction mixture, from 10 mM DMSO stock solutions. This reaction is not selective to one site (K30C or K441C), and we anticipate that there is a mixed population with K30C or K441C labeled with either AF488 (donor) or AF568 (acceptor). We focused on maximizing the fraction containing donor–acceptor pairs, thus maximizing FRET efficiency and the precision for detecting a change in structure as an indication that a compound interacts with the NTR biosensor. The labeling efficiency was determined by comparing the molar concentration of the bound dye, determined from UV-Vis absorbance, to the protein concentration, determined from gel densitometry. Essentially complete labeling was confirmed from electrospray ionization mass spectrometry. CD spectra of the WT-NTR and mutant R420Q-NTR constructs before and after labeling were recorded using a JASCO J-815 CD spectrometer (JASCO), confirming similar folding (Fig. S1).
The 1536-well assay plates were prepared as described in our previous reports ([21]). The LOPAC (Sigma-Aldrich) collection received in 96-well plates was reformatted into 384-well polypropylene intermediate plates (Greiner Bio-One) using a multichannel liquid handler, BioMek FX (Beckman Coulter), then transferred to 384-well Echo Qualified source plates (Labcyte Inc). Assay plates were prepared as previously described ([20]). On screening days, these plates were thawed out and were loaded with labeled NTR (5 μl, 20 nM final concentration) using a Multidrop Combi automated sample dispenser.
HTS measurements were conducted in a prototype top-read FLT plate reader (FLT-PR, Fluorescence Innovations, Inc), which reads each 1536-well plate in ∼3 min ([63], [64]). AF488 donor fluorescence was excited with a 473 nm microchip laser from Concepts Research Corporation, and the emission signal was split into two channels by a dichroic mirror and acquired with 517 ± 10 nm (channel 1) and 535 ± 7 nm band-pass filters (channel 2) (Semrock). […]

## CC(=O)O[C@H]1C[C@@]2(C)[C@@H](C[C@@H](O)[C@H]3[C@@]4(C)CC[C@@H](O)[C@@H](C)[C@@H]4CC[C@@]32C)/C1=C(\CCC=C(C)C)C(=O)O [FA, (2Z)-2-[(3R,4S,5S,8S,9S,10S,11R,13R,14S,16S)-16-acetyloxy-3,11-dihydroxy-4,8,10,14-tetramethyl-2,3,4,5,6,7,9,11,12,13,15,16-dodecahydro-1H-cyclopenta[a]phenanthren-17-ylidene]-6-methylhept-5-enoic acid]
0 to 100 μM, CPNQ/corbadrine decrease FLT, FA/tacrolimus increase FLT
  ΔFLT: ≈ 0.1 ns
read-out: EC50, FRET dose-response, Hill fit, Table S4
  EC50: 3.8 µM

Source: article PMC8689225, “Cardiac ryanodine receptor N-terminal region biosensors identify novel inhibitors via FRET-based high-throughput screening” (The Journal of Biological Chemistry, 2021)
